Results as given in US9493446B2, “Orexin receptor antagonists which are [ortho bi-(hetero-)aryl]-[2-(meta bi-(hetero-)aryl)-pyrrolidin-1-yl]-methanone derivatives” (Actelion Pharmaceuticals Ltd, priority 2012, dated 2016).
Read-outs that look alike come from different tables or passages of the source.

Tests used:
[1] = Measurement of brain and systemic concentration after oral administration; type: in vivo; details: rat, 3 h after oral administration (100 mg/kg), n=3, male wistar rats;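 for concentration in plasma [P]: unit ng/mL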
Method: Measurement of Brain and Systemic Concentration after Oral Administration:
In order to assess brain penetration, the concentration of the compound is measured in plasma ([P]), and brain ([B]), sampled 3 h (or at different time points) following oral administration (e.g. 100 mg/kg) to male wistar rats. The compounds are formulated e.g. in 100% PEG 400. Samples are collected in the same animal at the same time point (+/−5 min). Blood is sampled from the vena cava caudalis into containers with EDTA as anticoagulant and centrifuged to yield plasma. Brain is sampled after cardiac perfusion of 10 mL NaCl 0.9% and homogenized into one volume of cold phosphate buffer (pH 7.4). All samples are extracted with MeOH and analyzed by LC-MS/MS. Concentrations are determined with the help of calibration curves.

human orexin-2 receptor = human orexin-2 receptor (Homo sapiens (Human), UniProt O43614); experiment: Intracellular calcium measurement (FLIPR), CHO cells expressing human orexin-2 receptor, 3 nM orexin-A; type: cell-based; details: CHO cells expressing human orexin-2 receptor, FLIPR, 3 nM orexin-A; geometric mean if determined several times; read-out: IC50 OX2
How it was run: (§1)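 CHO transfectants were dye-loaded (fluo-4 AM, probenecid) and exposed to antagonist for 120 min ahead of agonist.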

orexin-1 = orexin-1 (Homo sapiens (Human), UniProt O43613); experiment: Intracellular calcium measurement (FLIPR), CHO cells expressing human orexin-1 receptor, 3 nM orexin-A; type: cell-based; details: CHO cells expressing human orexin-1 receptor, FLIPR, 3 nM orexin-A; geometric mean if determined several times; read-out: IC50 OX1
How it was run: as §1

Wistar rats = experiment: Sleep effects: EEG, EMG and behavioural indices of alertness by radiotelemetry; type: in vivo; details: effects analyzed over 12 hours, compared to vehicle controls
Method: Sleep Effects: EEG, EMG and Behavioural Indices of Alertness Recorded by Radiotelemetry In Vivo in Wistar Rats.
Electroencephalography (EEG) and Electromyography (EMG) signals were measured by telemetry using TL11M2-F20-EET miniature radiotelemetric implants (Data Science Int.) with two pairs of differential leads.
Surgical implantation was performed under general anesthesia with Ketamin/Xylazin, for cranial placement of one differential pair of EEG electrodes and one pair of EMG leads inserted in either side of the muscles of the neck. After surgery, rats recovered in a thermoregulated chamber and received analgesic treatment with subcutaneous buprenorphine twice a day for 2 d. They were then housed individually and allowed to recover for a minimum of 2 weeks. Thereafter, rats—in their home cage—were placed in a ventilated sound-attenuating box, on a 12-h light/12-h dark cycle, for acclimatization before continuous EEG/EMG recordings started. The telemetric technology that we used in this study allows accurate and stress-free acquisition of biosignals in rats placed in their familiar home cage environment, with no recording leads restricting their movements. Variables analyzed included four different stages of vigilance and sleep, spontaneous activity in the home cage and body temperature. Sleep and wake stages were evaluated using a rodent scoring software (Somnologica Science) directly processing electrical biosignals on 10 s contiguous epochs. The scoring is based on frequency estimation for EEG and amplitude discrimination for EMG and locomotor activity. Using these measurements, the software determines the probability that all components within each epoch best represent active waking (AW), quiet waking (QW), non-REM-sleep (NREM) or REM-sleep (REM). The percentage of total time spent in AW, QW, NREM- and REM-sleep was calculated per 12 h light or dark period. The latency to the onset of the first significant NREM- and REM-sleep episodes and the number and duration of those episodes were also calculated. AW, QW, NREM- and REM-sleep, home cage activity and body temperature were measured at baseline for at least one total circadian cycle (12 h-night, 12 h-day) before a test compound was administered. […] All variables were subsequently recorded for 12 h following administration of the orexin receptor antagonist.

[2] = brain, read-out: concentration in brain [B]
[3] = plasma, read-out: concentration in plasma [P]

Sequence of human orexin-2 receptor (O43614 whole entry): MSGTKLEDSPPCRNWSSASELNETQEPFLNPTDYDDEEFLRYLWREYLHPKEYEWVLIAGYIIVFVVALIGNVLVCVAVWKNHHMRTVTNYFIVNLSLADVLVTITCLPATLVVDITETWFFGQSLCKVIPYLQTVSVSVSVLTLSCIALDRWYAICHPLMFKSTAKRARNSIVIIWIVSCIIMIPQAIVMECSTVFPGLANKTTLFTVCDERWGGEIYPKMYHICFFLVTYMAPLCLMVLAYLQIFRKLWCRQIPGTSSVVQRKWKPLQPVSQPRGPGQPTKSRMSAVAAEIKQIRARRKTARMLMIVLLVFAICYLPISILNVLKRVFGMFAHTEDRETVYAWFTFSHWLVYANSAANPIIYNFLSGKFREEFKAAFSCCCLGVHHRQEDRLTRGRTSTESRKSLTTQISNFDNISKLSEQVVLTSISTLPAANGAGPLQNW
Sequence of orexin-1 (O43613 whole entry): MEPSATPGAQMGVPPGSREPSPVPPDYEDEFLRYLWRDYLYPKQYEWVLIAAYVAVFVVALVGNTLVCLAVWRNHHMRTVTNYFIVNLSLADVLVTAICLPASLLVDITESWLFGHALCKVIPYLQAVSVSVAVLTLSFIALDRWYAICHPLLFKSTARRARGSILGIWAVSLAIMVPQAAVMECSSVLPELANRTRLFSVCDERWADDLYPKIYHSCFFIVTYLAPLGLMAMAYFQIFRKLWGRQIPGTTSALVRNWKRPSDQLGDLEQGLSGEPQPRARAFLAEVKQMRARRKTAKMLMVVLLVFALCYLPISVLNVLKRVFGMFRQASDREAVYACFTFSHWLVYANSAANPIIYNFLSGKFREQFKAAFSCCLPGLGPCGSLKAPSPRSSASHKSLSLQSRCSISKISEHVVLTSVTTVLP

| Molecule | concentration at 3 h [1, 2] | concentration at 3 h [1, 3] | IC50 (human orexin-2 receptor) | IC50 (orexin-1) | also measured |
| --- | --- | --- | --- | --- | --- |
| C[C@@]1(c2nnc(-c3ccccc3OC(F)(F)F)[nH]2)CCCN1C(=O)c1ccc(Cl)cc1-n1nccn1 [Example 544, (4-Chloro-2-[1,2,3]triazol-2-yl-phenyl)-{(S)-2-methyl-2-[5-(2-trifluoromethoxy-phenyl)-4H-[1,2,4]triazol-3-yl]-pyrrolidin-1-yl}-methanone] | 1120 ng/g | 1070 ng/mL | 6 nM | 5 nM | effect on NREM sleep (Wistar rats; 30 mg/kg po): +19.4%; effect on REM sleep (Wistar rats; 30 mg/kg po): +5.6%; effect on active wake (Wistar rats; 30 mg/kg po): −9.6%; effect on home cage activity (Wistar rats; 30 mg/kg po): −18.5% |
| COc1cc(C(=O)N2CCC[C@H]2c2nc(-c3ccccc3OC(F)(F)F)no2)c(-n2nccn2)cc1C [Example 154, (5-Methoxy-4-methyl-2-[1,2,3]triazol-2-yl-phenyl)-{(S)-2-[3-(2-trifluoromethoxy-phenyl)-[1,2,4]oxadiazol-5-yl]-pyrrolidin-1-yl}-methanone] | 3250 ng/g | 2240 ng/mL | 2 nM | 30 nM | effect on NREM sleep (Wistar rats; 100 mg/kg po): +7.3%; effect on REM sleep (Wistar rats; 100 mg/kg po): +0.9%; effect on active wake (Wistar rats; 100 mg/kg po): −13.9%; effect on home cage activity (Wistar rats; 100 mg/kg po): −26.8% |
| COc1cc(C(=O)N2CCC[C@H]2c2noc(-c3ccccc3OC(F)(F)F)n2)c(-n2nccn2)cc1C [Example 308, (5-Methoxy-4-methyl-2-[1,2,3]triazol-2-yl-phenyl)-{(S)-2-[5-(2-trifluoromethoxy-phenyl)-[1,2,4]oxadiazol-3-yl]-pyrrolidin-1-yl}-methanone] | 1580 ng/g | 1760 ng/mL | 4 nM | 22 nM | effect on NREM sleep (Wistar rats; 100 mg/kg po): +14.3%; effect on REM sleep (Wistar rats; 100 mg/kg po): +35.2%; effect on active wake (Wistar rats; 100 mg/kg po): −24.0%; effect on home cage activity (Wistar rats; 100 mg/kg po): −41.4% |
| Cc1ccc(C(=O)N2CCC[C@H]2c2nnc(-c3ccccc3OC(F)(F)F)[nH]2)c(-n2nccn2)c1 [Example 502, (4-Methyl-2-[1,2,3]triazol-2-yl-phenyl)-{(S)-2-[5-(2-trifluoromethoxy-phenyl)-4H-[1,2,4]triazol-3-yl]-pyrrolidin-1-yl}-methanone] | 1640 ng/g | 2770 ng/mL | – | – | effect on NREM sleep (Wistar rats; 100 mg/kg po): +24.2%; effect on REM sleep (Wistar rats; 100 mg/kg po): +47.0%; effect on active wake (Wistar rats; 100 mg/kg po): −19.4%; effect on home cage activity (Wistar rats; 100 mg/kg po): −47.1% |
| Cc1cc(C(=O)N2CCC[C@H]2c2nc(-c3cccc(Cl)c3C)no2)c(-n2nccn2)cc1C [Example 95, {(S)-2-[3-(3-Chloro-2-methyl-phenyl)-[1,2,4]oxadiazol-5-yl]-pyrrolidin-1-yl}-(4,5-dimethyl-2-[1,2,3]triazol-2-yl-phenyl)-methanone] | 483 ng/g | 309 ng/mL | 3 nM | 13 nM | effect on NREM sleep (Wistar rats; 100 mg/kg po): +11.2%; effect on REM sleep (Wistar rats; 100 mg/kg po): +7.8%; effect on active wake (Wistar rats; 100 mg/kg po): −7.3%; effect on home cage activity (Wistar rats; 100 mg/kg po): −20.3% |
| Cc1ccc(-n2nccn2)c(C(=O)N2CCC[C@H]2c2nc(-c3cccc(C(F)(F)F)c3C)no2)c1 [compound 54, (5-Methyl-2-[1,2,3]triazol-2-yl-phenyl)-{(S)-2-[3-(2-methyl-3-trifluoromethyl-phenyl)-[1,2,4]oxadiazol-5-yl]-pyrrolidin-1-yl}-methanone] | – | – | 46 nM | 216 nM | – |
| CCOc1ncccc1-c1noc([C@@H]2CCCN2C(=O)c2cc(F)cc(C)c2-n2nccn2)n1 [compound 225, {(S)-2-[3-(2-Ethoxy-pyridin-3-yl)-[1,2,4]oxadiazol-5-yl]-pyrrolidin-1-yl}-(5-fluoro-3-methyl-2-[1,2,3]triazol-2-yl-phenyl)-methanone] | – | – | 600 nM | 964 nM | – |
| CCOc1ccccc1-c1cnc([C@@H]2CCCN2C(=O)c2cc(C)ccc2-n2nccn2)[nH]1 [compound 526, {(S)-2-[5-(2-Ethoxy-phenyl)-1H-imidazol-2-yl]-pyrrolidin-1-yl}-(5-methyl-2-[1,2,3]triazol-2-yl-phenyl)-methanone] | – | – | 5 nM | 28 nM | – |
| CCOc1ncccc1-c1noc([C@@H]2CCCN2C(=O)c2ccc(C(F)(F)F)cc2-n2nccn2)n1 [compound 222, {(S)-2-[3-(2-Ethoxy-pyridin-3-yl)-[1,2,4]oxadiazol-5-yl]-pyrrolidin-1-yl}-(2-[1,2,3]triazol-2-yl-4-trifluoromethyl-phenyl)-methanone] | – | – | 121 nM | 351 nM | – |
| O=C(c1ccccc1-n1nccn1)N1CCC[C@H]1c1nnc(-c2ccccc2OC(F)(F)F)[nH]1 [compound 503, (2-[1,2,3]Triazol-2-yl-phenyl)-{(S)-2-[5-(2-trifluoromethoxy-phenyl)-4H-[1,2,4]triazol-3-yl]-pyrrolidin-1-yl}-methanone] | – | – | 27 nM | 156 nM | – |
| {(S)-2-[3-(3-Chloro-phenyl)-[1,2,4]oxadiazol-5-yl]-pyrrolidin-1-yl}-thiophen-2-yl-methanone [Reference compound 2, reference compound] | – | – | 41 nM | 253 nM | – |
| Cc1ccc(-n2nccn2)c(C(=O)N2CCC[C@H]2c2nc(-c3cccc(F)c3)no2)c1 [compound 14, {(S)-2-[3-(3-Fluoro-phenyl)-[1,2,4]oxadiazol-5-yl]-pyrrolidin-1-yl}-(5-methyl-2-[1,2,3]triazol-2-yl-phenyl)-methanone] | – | – | 295 nM | 392 nM | – |
| CCOc1ncccc1-c1noc([C@@H]2CCCN2C(=O)c2ccc(C)c(C)c2-n2nccn2)n1 [compound 273, (3,4-Dimethyl-2-[1,2,3]triazol-2-yl-phenyl)-{(S)-2-[3-(2-ethoxy-pyridin-3-yl)-[1,2,4]oxadiazol-5-yl]-pyrrolidin-1-yl}-methanone] | – | – | 134 nM | 148 nM | – |
| COc1ccc(-c2noc([C@@H]3CCCN3C(=O)c3cc(C)ccc3-n3nccn3)n2)cc1OC [compound 82, {(S)-2-[3-(3,4-Dimethoxy-phenyl)-[1,2,4]oxadiazol-5-yl]-pyrrolidin-1-yl}-(5-methyl-2-[1,2,3]triazol-2-yl-phenyl)-methanone] | – | – | 131 nM | 874 nM | – |
